For series [1], the system named is CprRS as well as ParRS system. Conditions: cited from earlier work. From the text: Pseudomonas aeruginosa is a notorious opportunistic pathogen known for its ability to evade host immune defenses, particularly in resisting antimicrobial peptides (AMPs). […] One notable feature is the abundance and diversity of two-component systems (TCS) in P. aeruginosa, which play a crucial role in regulating its response to host and environmental stimuli, including ...

Series [2] deals with full-length CprS (CprSFL). Kind of series: Microscale thermophoresis (MST), full-length CprS. It is filed as binding, P. aeruginosa. The settings on record: 100 nM His-tag labelled CprSFL, 16 doubling dilutions from 500 μM peptide, PBST buffer, 25°C 30 min, Monolith NT.115, repeated three times, read-out: Kd (CprSFL + LL-37). The protocol: (§1) The E. coli BL21 (DE3) strains harboring pET22b-cprS and pET22b-cprR were cultured at 37°C in LB medium and suppled with 0.4 mM IPTG as the OD600 reached to 0.8. The cultures were incubated at 16°C for an additional 14 h and the cells were collected and resuspended in buffer A (20 mM tris-HCl (pH 8.0), 150 mM NaCl). The cells were lysed by ultrasound and centrifuged at 15, 000 rpm for 20 min at 4°C. Then the supernatant was applied to Ni-agarose resins and eluted with buffer containing 300 mM imidazole. As for full-length CprS, the supernatant needed to be extracted by 2% ELUGENT Detergent and flow 0.02% DDM for elution. The target proteins were further purified via AKTA purifier using buffer A and concentrated to 12 mg/mL.
(§2) The 100 nM CprS with His-tag was labeled with Monolith His-Tag Labelling Kit RED-tris-NTA 2nd Generation Kit and the cationic peptides used in this work were diluted with PBST buffer gradient from 0.5 mM [34]. The proteins and cationic peptide dilutions were mixed and incubated at 25°C for 30 min and detected on a Monolith NT.115 instrument. The data were analyzed by NanoTemper Analysis 1.2.20 software.
Background: In MST a laser heats a spot of the sample, and binding alters the fluorescence response.

For series [3], the target named is CprS sensor domain (CprSSD, residues 28–163). Kind of series: Microscale thermophoresis (MST), CprS sensor domain. The class given is binding, P. aeruginosa. The settings on record: 100 nM His-tag labelled CprSSD (residues 28–163), 16 doubling dilutions from 500 μM peptide, PBST buffer, 25°C 30 min, Monolith NT.115, repeated three times, read-out: Kd (CprSSD + LL-37). The protocol: as §1, §2

Series [4] has as its system cprS. Description: qRT-PCR, cprS transcription. It is filed as cell-based, P. aeruginosa. Conditions: oprL as normalizer. The protocol:
(§3) Overnight bacterial cultures were subcultured in fresh LB medium to OD600 0.8 and the cells were collected by using Trizol. The cDNA was synthesized by using PrimeScript RT reagent Kit. 2 × SYBR qPCR Master Mix was used to perform qPCR assays. The reaction step was 2 × SYBR qPCR Master Mix (Without ROX) 10 μL, upstream Primer (10 μM) 0.4 μL, downstream Primer (10 μM) 0.4 μL, template cDNA 1 μg and ddH2O up to 20 μL. The qPCR procedure was set as: stage 1 (95°C 30 s, repeat once), stage 2 (95°C 10 s, 60°C 30 s, repeat for 40 times) and stage 3 (95°C 15 s, 60°C 1 min, 95°C 15 s, repeat 1 time). The oprL gene was used as a normalizer. The same method was used for mammalian cells, and 18 sRNA served as a normalizer.
A general note: In qPCR the cycle at which signal appears reflects the starting amount.

Series [5] relates to cprR. Description: qRT-PCR, cprR transcription. It is filed as cell-based, P. aeruginosa. The settings on record: oprL as normalizer. The method, then:
as §3

Series [6] has as its system arnBCADTEF operon. Description: Expression of arnBCADTEF operon. It is filed as cell-based, P. aeruginosa. The method, then:
as §3

Series [7] deals with pscDEFG operon. Description: Expression of pscDEFG operon. The class given is cell-based, P. aeruginosa. The method, then: as §3
Series [8] deals with higB promoter. Kind of series: β-Galactosidase reporter, higB promoter in P. aeruginosa. The class given is cell-based.
The subject of series [9] is higB. Kind of series: qPCR, higB mRNA. The class given is cell-based, P. aeruginosa. The method, then: as §3
Series [10] concerns higA. Description: Expression of higA. The class given is cell-based, P. aeruginosa. Conditions: WT and ΔcprR or ΔcprS mutants. The method, then: as §3
In series [11] the test system is exsA and effectors exoS, exoT, and exoU. Description: Expression of T3SS genes exsA, exoS, exoT, exoU. The settings on record: combined mutations of CprRS components and higB gene. It is filed as cell-based, P. aeruginosa. The method, then: as §3
For series [12], the system named is Raw264.7 macrophages. Kind of series: LDH release cytotoxicity assay of infected macrophages. Conditions: MOI of 10, LL-37-treated WT P. aeruginosa. The class given is cell-based. The protocol:
The Raw264.7 cells were infected with suspended bacteria at a multiplicity of infection (MOI) of 10 in antibiotic-free DMEM medium. Following incubation, the supernatant was collected and the presence of LDH was measured using the LDH cytotoxicity assay kit. The baseline level of LDH release (0% LDH release) was determined using DMEM medium. Cells treated with LDH release agent C0017-1 were used as a positive control for total release (100% LDH release). The percentage of cytotoxicity was calculated according to the instructions provided by the manufacturer.
A general note: Release of lactate dehydrogenase indicates damage to the cell membrane.

In series [13] the test system is RAW264.7 macrophages (TNF-α, IL-1β, IL-8, IL-12). Kind of series: Pro-inflammatory cytokine levels in infected macrophages. Conditions: 18s RNA normalizer. It is filed as cell-based. The protocol:
as §3

In series [14] the test system is P. aeruginosa ΔcprS. Kind of series: Label-free quantitative proteomics of ΔcprS before and after LL-37. The class given is cell-based. Conditions: PscE, PscH, PscJ, ExoT, PcrV, PcrH, PhzA2, PhzB2, PhzF1, FilF, PigA, HsbA; before vs after LL-37. The method, then: Protein was collected, reduced, and alkylated from WT, ΔcprS, ΔcprR, ΔcprSΔhigB, and ΔcprSΔhigB strains as reported. The total purified peptides were solubilized in 20 μL of 0.1% formic acid (FA, v/v) and the concentration was measured according to BCA assay.
About 2 μg samples were analyzed by orbitrap Fusion Lumos MS coupled online to an EASY-nLC 1200 system with a data-independent acquisition mode (DIA). The mobile phase used for the liquid chromatography consisted of buffer A (0.1% FA) and buffer B (80% acetonitrile, 0.1% FA). The peptides were separated using a 160-min nonlinear gradient consisting of 4–35% buffer B for 85 min, 35–100% buffer B for 60 min and 100% buffer B for 15 min at a flow rate of 300 nL min^−1. The acquired DIA data were analyzed by DIA-NN software against the protein database of P. aeruginosa PA14. Data processing was conducted using the software Perseus. Student’s t-test was used to assess the significance of differential expression of proteins (DEPs) between two groups. Proteins that have significance level of P < 0.05 and fold change >1.5 or <–1.5 were considered as DEPs.

The subject of series [15] is CarSR system. The settings on record: Vibrio cholerae; cited from earlier work. From the text: (§4) In the field of microbiology and immunology, the interaction between host antimicrobial peptides and pathogenic bacteria has been a subject of extensive research. The success of bacterial infections depends on a delicate balance of signals exchanged between microbes and hosts. Cationic antimicrobial peptides, including defensins such as α-defensins, β-defensins, and cathelicidin LL-37, are crucial components of innate host defense against bacterial infections. Numerous studies have shown that LL-37 acts as a shield between the host and the external environment, preventing bact ...

Series [16] relates to virulence sensor kinase CovS. The settings on record: group A streptococcus; cited from earlier work.
Text: as §4

pKd: −log10 of the molar value.

dynorphin: the “stimulation of CprRS as well as ParRS by dynorphin” value in [1] is “increased virulence factor production and adaptive resistance”.

By pKd is commonly meant the Kd on a negative log10 scale, so that one unit is a factor of ten. With LL-37, the values for the pKd in series [2] and in [3] were 5.85 and 5.27, respectively. Besides, the “increase in cprS transcription compared to control without LL-37” value in [4] came out at 2.5 fold. The “increase in cprR transcription compared to control without LL-37” value in series [5] came out at 2.2 fold. For the same substance, the “expression of arnBCADTEF operon under LL-37” value in series [6] (WT strain) is “markedly induced”; in series [6] (ΔcprR and ΔcprS mutants), “this induction was not observed”. Further, the “expression of pscDEFG operon under LL-37” value is on record as “notably induced” in series [7] (WT strain) and “no such induction was observed” in series [7] (mutants). In addition, the “induction of higB promoter by LL-37” value in [8] (WT) is “significant positive induction activity on higB promoter”; in series [8] (ΔcprR and ΔcprS mutants), “markedly reduced”. In addition, the results for the “increase in higB mRNA levels upon LL-37 treatment” value in series [9] (WT strain), in series [9] (ΔcprR mutant) and in series [9] (ΔcprS mutant) were 8.79 fold, 2.12 fold and 2.74 fold, respectively. Further, in series [10], the “effect of LL-37 stimulation on expression of higA” value was “limited effects on the expression of higA”. In addition, in series [11], the “upregulation of T3SS in response to LL-37 stimulation” value was “greatly attenuated”. The “cytotoxicity of LL-37-treated WT strains compared to untreated group” value in [12] is recorded as “increased cytotoxicity”. In addition, the “effect of LL-37 pretreatment on inhibition of pro-inflammatory cytokines” value is listed as “enhanced the ability of the WT strain to effectively inhibit the activation of pro-inflammatory cytokines” in series [13] (macrophages infected with WT strain pretreated with LL-37); “largely absent” in [13] (macrophages infected with ΔcprS and ΔcprR strains). Also, the “expression of virulence proteins in ΔcprS upon stimulation with LL-37” value in [14] is given as “significant decrease in the expression of several proteins directly involved in virulence processes”. Further, the “sensing by CarSR” value in series [15] is “sense human enteric α-defensin 5 and LL-37 to promote bacterial pathogenicity”. The “activation of CovS” value in series [16] is reported as “activated by LL-37”.

These data come from paper PMC10805311, “Pseudomonas aeruginosa two-component system CprRS regulates HigBA expression and bacterial cytotoxicity in response to LL-37 stress” (PLOS Pathogens, 2024).
